19 compounds from US20230118142A1, “AGENTS FOR USE IN THE TREATMENT OF TISSUE DAMAGE” (UCL BUSINESS LTD, priority 2020, published 2023) can be followed below.

Parameters in all cases: The final concentrations were 0.73 μM native pentameric CRP; from tissue
Experiment [1] deals with T1, CRP (Homo sapiens, UniProt P02741).
T1 sequence (P02741 19-224): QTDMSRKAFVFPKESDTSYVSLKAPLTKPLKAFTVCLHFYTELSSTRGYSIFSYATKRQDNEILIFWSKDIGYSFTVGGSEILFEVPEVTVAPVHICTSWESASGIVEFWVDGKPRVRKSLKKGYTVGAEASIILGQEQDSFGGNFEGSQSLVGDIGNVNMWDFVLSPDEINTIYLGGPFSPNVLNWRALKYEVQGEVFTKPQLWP
In words: Roche immunoturbidimetric assay: pure CRP. It counts as binding. To be noted: pure CRP in TC buffer; read-out: IC50 (μM), SD; inhibition of Roche CRP immunoreactivity. As for the experimental part:
(i) Human CRP at ˜90 μg/ml (3.9 μM monomer or 0.78 μM pentamer) in TC buffer was prepared from a stock solution; a 75 μl aliquot was used in the assay.
(ii) Compounds were prepared from stock solutions at up to 10 mM in TC (labelled S1). They were serially diluted with TC buffer (100 μl ligand+200 μl TC) to provide up to 9 dilutions, S2-S10. A TC buffer control (S0) was included in each assay.
(iii) A 15 μl volume of each ligand solution was incubated with 75 μl of CRP for 1 h at 37° C. The final concentrations were CRP pentamer=0.73 μM, ligands S1-S10=625-0.03 μM, corresponding to ligand:CRP pentamer ratios of 853-0.04.
(iv) CRP concentrations were measured by the Roche microparticle-enhanced immunoturbidimetric assay (10) on the COBAS MIRA autoanalyser, and results expressed as a percentage of the CRP control.
(v) Data were plotted using Sigmaplot (V14) using the 4 parameter logistic curve y=min+(max−min)/(1+(x/EC50)^−Hill slope) to calculate EC50.
(vii) All compounds were assayed in comparison with a highly purified preparation of BPC8, that was prepared by Carbogen AMCIS AG, dissolved in sterile water and diluted into TC buffer as required.
The immunoturbidimetric CRP assay on the Roche COBAS MIRA Plus autoanalyser, utilises two different sized microparticles that are covalently coupled with two different monoclonal antibodies, which recognise different CRP epitopes. The assay was developed by Roche for clinical measurement of CRP serum and plasma with high sensitivity and a very wide dynamic range. Serendipitously, one of the two antibodies binds to an epitope present on the ligand binding B-face of CRP. Thus, when the binding pocket is occupied by ligand and, especially, when the B-face is occluded by the B-face to B-face interaction of two native CRP pentamers produced by cross linking via our unique bivalent ligands, the assay fails to detect the CRP. In contrast, the CRP is all detected and assayed normally by other assays that disrupt the crosslinking and/or use antibodies which recognise different, non-occluded, epitopes. Inhibition of CRP recognition in the Roche assay is thus a convenient tool to monitor the efficacy and potency of complex formation between our unique ligands and CRP.

In experiment [2] the target is T1, CRP. The experiment is described as follows: Size exclusion chromatography of CRP/ligand cross linking. It counts as binding. The conditions noted are these: CRP/ligand complex re-chromatographed in absence of free ligand. Here is the method: (i) Ligands were diluted to 0.5 mM in TC buffer from up to 10 mM stocks. Serial dilutions were prepared as required. […]
(iii) The complex was chromatographed on a Superdex200 column (10/300 GL; 24 ml bed volume), connected to the ÅKTA100 Explorer HPLC system, and equilibrated and eluted in TC buffer at 0.5 ml/min. Eluates were monitored at 280 nm and fractions (0.5 ml) collected as required.
Size exclusion chromatography on a Superdex 200 column equilibrated and eluted with TC buffer pH 8.0, and calibrated with standard globular marker proteins and with human CRP, the native CRP pentamer (Mr 115 kDa) eluted at 13.9 ml (range 13.7-14.0 ml, n=10).
(In general: SEC sorts molecules by how far they enter the pores of the column.)

For experiment [3], the target named is T1, CRP. In words: Immobilised phosphocholine plate assay (125I-CRP binding). To be noted: read-out: IC50 for inhibition of 125I-CRP binding to immobilised phosphocholine. As for the experimental part: (i) Phosphocholine was immobilised on Greiner NHS-activated microtitre plates by incubation with 4-aminophenyl-1-phosphocholine. Remaining active sites were blocked by incubation with 4% w/v BSA in TC buffer (TCB).
(ii) Human CRP at 1 μg/ml in TC buffer was spiked with ^125I-labelled CRP to provide 10^6 cpm/ml.
(iii) Compounds were prepared from up to 10 mM stock solutions by dilution in TC buffer to 0.5 mM (labelled S1). Serial dilutions were prepared by diluting 100 μl ligand solution with 200 μl TC buffer (S2-S10). A ligand-free control was also used (SO, TC only).
(iv) A 100 μl volume of CRP solution was incubated with 10 μl of each compound (S1-S10, SO) for 1 h at room temperature without stirring, to provide final ligand concentrations across the range 45.5 μM-6.9 nM with a ligand:CRP monomer molar ratio of 1151-0.06. In some cases, single fixed ligand concentrations were also assayed in comparison with PC.
(v) A 100 μl volume of each CRP-ligand mixture was added to the plate wells and incubated for 2 h at room temperature. Solutions were then discarded and the plates washed with TCB buffer. Bound radioactivity was measured (1 min counts) using a gamma counter (Perkin Elmer Wizard 2470).
(vi) Data were plotted with Sigmaplot v14 software using the 4-parameter logistic curve y=min+(max−min)/(1+(x/EC50)^−Hill slope) to calculate IC50.

On to `O=C(CC(c1ccccc1)C(CC(=O)NC(C(=O)O)[C@H]1CN2CCC1CC2)c1ccccc1)NC(C(=O)O)[C@H]1CN2CCC1CC2` (single isomer, unassigned) [P2B-D peak1], for which the IC50 at CRP [1] is 0.66 µM. At CRP [2], the Stable to rechromatography entry is reported as “Yes”.
Turning to `O=C(NC(C(=O)O)[C@H]1CN2CCC1CC2)C(=O)NC(C(=O)O)[C@H]1CN2CCC1CC2` (stereo partly drawn) [Compound P1d-0, 2-[(3R)-1-azabicyclo[2.2.2]octan-3-yl]-2-[({[(3R)-1-azabicyclo[2.2.2]octan-3-yl](carboxy)methyl}carbamoyl)formamido]acetic acid], on CRP [1], the IC50 is 0.97 µM.
`O=C(CC(=O)NC(C(=O)O)[C@H]1CN2CCC1CC2)NC(C(=O)O)[C@H]1CN2CCC1CC2` (stereo partly drawn) [Compound P1d-1, 2-[(3R)-1-azabicyclo[2.2.2]octan-3-yl]-2-(2-{[[(3R)-1-azabicyclo[2.2.2]octan-3-yl](carboxy)methyl]carbamoyl}acetamido)acetic acid]: the IC50 on CRP [1] is greater than 400 µM.
For the compound `O=C(CCC(=O)NC(C(=O)O)[C@H]1CN2CCC1CC2)NC(C(=O)O)[C@H]1CN2CCC1CC2` (stereo partly drawn) [Compound P1d-2, 2-[(3R)-1-azabicyclo[2.2.2]octan-3-yl]-2-[3-({[(3R)-1-azabicyclo[2.2.2]octan-3-yl](carboxy)methyl}carbamoyl)propanamido]acetic acid], the 50% inhibitory concentration (IC50) on CRP [1] was less than 2 µM. Also, the Stable to rechromatography result at CRP [2] was “Yes”.
Consider `O=C(CCCC(=O)NC(C(=O)O)[C@H]1CN2CCC1CC2)NC(C(=O)O)[C@H]1CN2CCC1CC2` (stereo partly drawn) [Compound P1d-3, 2-[(3R)-1-azabicyclo[2.2.2]octan-3-yl]-2-(4-{[[(3R)-1-azabicyclo[2.2.2]octan-3-yl](carboxy)methyl]carbamoyl}butanamido)acetic acid], for which the IC50 at CRP [1] was greater than 400 µM.
For `O=C(CCCCC(=O)NC(C(=O)O)C1CN2CCC1CC2)NC(C(=O)O)C1CN2CCC1CC2` [Compound P1d-4, 2-[(3R)-1-azabicyclo[2.2.2]octan-3-yl]-2-(8-{[[(3R)-1-azabicyclo[2.2.2]octan-3-yl](carboxy)methyl]carbamoyl}pentamido)acetic acid], on CRP [1], the concentration for half-maximal inhibition (IC50) was less than 2 µM. Further, on CRP [2], the Stable to rechromatography entry is listed as “Partial”.
In the case of `C[N+]12CCC(CC1)[C@@H](C(NC(=O)CCCCC(=O)NC(C(=O)O)[C@H]1C[N+]3(C)CCC1CC3)C(=O)O)C2` (stereo partly drawn) [Compound P1d-4A, (3R)-3-{carboxy[5-({carboxy[(3R)-1-methyl-1-azabicyclo[2.2.2]octan-1-ium-3-yl]methyl}carbamoyl)pentanamido]methyl}-1-methyl-1-azabicyclo[2.2.2]octan-1-ium], the IC50 at CRP [1] stood at 1.43 µM.
Consider `O=C(CCCCCC(=O)NC(C(=O)O)[C@H]1CN2CCC1CC2)NC(C(=O)O)[C@H]1CN2CCC1CC2` (stereo partly drawn) [Compound P1d-5, 2-[(3R)-1-azabicyclo[2.2.2]octan-3-yl]-2-(6-{[[(3R)-1-azabicyclo[2.2.2]octan-3-yl](carboxy)methyl]carbamoyl}hexanamido)acetic acid], for which the concentration for half-maximal inhibition (IC50) on CRP [1] was greater than 400 µM.
On the same count and under the same terms, then `O=C(CCCCCCC(=O)NC(C(=O)O)[C@H]1CN2CCC1CC2)NC(C(=O)O)[C@H]1CN2CCC1CC2` (stereo partly drawn) [Compound P1d-6, 2-[(3R)-1-azabicyclo[2.2.2]octan-3-yl]-2-[7-({[(3R)-1-azabicyclo[2.2.2]octan-3-yl](carboxy)methyl}carbamoyl)heptanamido]acetic acid], with 9.92 µM; and `O=C(CCCCCCCC(=O)NC(C(=O)O)[C@H]1CN2CCC1CC2)NC(C(=O)O)[C@H]1CN2CCC1CC2` (stereo partly drawn) [Compound P1d-7, 2-[(3R)-1-azabicyclo[2.2.2]octan-3-yl]-2-(8-{[[(3R)-1-azabicyclo[2.2.2]octan-3-yl](carboxy)methyl]carbamoyl}octanamido)acetic acid], with greater than 400 µM; and `O=C(Cc1ccc(CC(=O)NC(C(=O)O)[C@H]2CN3CCC2CC3)cc1)NC(C(=O)O)[C@H]1CN2CCC1CC2` (stereo partly drawn) [Compound P2B-C, 2-[[2-[4-[2-[[carboxy-[(3R)-quinuclidin-3-yl]methyl]amino]-2-oxo-ethyl]phenyl]acetyl]amino]-2-[(3R)-quinuclidin-3-yl]acetic acid], with 2.69 µM.
Same read-out and setting: then `O=C(NC(C(=O)O)[C@H]1CN2CCC1CC2)NC(C(=O)O)[C@H]1CN2CCC1CC2` (stereo partly drawn) [Compound P2B-G, 2-[[-carboxy-[(3R)-quinuclidin-3-yl]methyl]carbamoylamino]-2-[(3R)-quinuclidin-3-yl]acetic acid], with 26.2 µM; and `CN(C)CCOP(=O)(O)OCCCCCCCCOP(=O)(O)OCCN(C)C` [Dm-BPC8, bis(2-(dimethylamino)ethyl) octane-1,8-diyl bis(hydrogen phosphate), reference compound], with 127 µM.
As for `O=P(O)(OCCCCCCOP(=O)(O)O[C@@H]1CN2CCC1CC2)O[C@@H]1CN2CCC1CC2` [Pk-025, Hexane-1,6-diyl di(S)-quinuclidin-3-yl) bis(hydrogen phosphate], the 50% inhibitory concentration (IC50) stood at 0.28 µM on CRP [3] and 1.08 µM on CRP [1].
With `O=P(O)(OCCCCCCCOP(=O)(O)OC1CN2CCC1CC2)OC1CN2CCC1CC2` [Pk-026, Heptane-1,7-diyl di(S)-quinuclidin-3-yl) bis(hydrogen phosphate], the IC50 on CRP [3] came out at 0.18 µM.
As for `O=P(O)(OCCCCCCCCCCOP(=O)(O)O[C@@H]1CN2CCC1CC2)O[C@@H]1CN2CCC1CC2` [Pk-027, Decane-1,10-diyl di(S)-quinuclidin-3-yl) bis(hydrogen phosphate], on CRP [3], the IC50 is 0.18 µM.
As to `O=P(O)(OCCCCCCCCCOP(=O)(O)O[C@@H]1CN2CCC1CC2)O[C@@H]1CN2CCC1CC2` [Pk-028, Nonane-1,9-diyl di(S)-quinuclidin-3-yl) bis(hydrogen phosphate], the IC50 on CRP [3] was determined as 0.16 µM.
Take `CC(C)(C/C=C/CC(C)(C)COP(=O)(O)O[C@@H]1CN2CCC1CC2)COP(=O)(O)O[C@@H]1CN2CCC1CC2` [Pk-032, di((S)-1-azabicyclo[2.2.2]octan-3-yl) (E)-2,2,7,7-tetramethyloct-4-ene-1,8-diyl bis(hydrogen phosphate)]: the concentration for half-maximal inhibition (IC50) at CRP [1] was found to be 0.72 µM.
The same measure, in the same setting: the value for `CC(C)(CCCCC(C)(C)COP(=O)(O)O[C@@H]1CN2CCC1CC2)COP(=O)(O)O[C@@H]1CN2CCC1CC2` [Pk-033, [(3S)-1-azabicyclo[2.2.2]octan-3-yloxy]({[8-({[(3S)-1-azabicyclo[2.2.2]octan-3-yloxy](hydroxy)phosphoryl}oxy)-2,2,7,7-tetramethyloctyl]oxy})phosphinic acid] was 0.59 µM.

In general, IC50 refers to the midpoint of a concentration-inhibition curve.
